Data on 7 compounds can be found in US7488568B2, “Resist composition, method of forming resist pattern, compound and acid generator” (Tokyo Ohka Kogyo Co., Ltd., priority 2008, dated 2009).

Some results are limits rather than exact numbers.

A short description of this series: Evaluation of solubility of acid generators in resist solvents (concentration at which completely dissolved). In kind it is physicochemical. To be noted: for Solubility in EL (% by weight): ethyl lactate; for Solubility in PGME (% by weight): propylene glycol monomethyl ether; for Solubility in PGMEA (% by weight): propylene glycol monomethyl ether acetate. As to the method: With respect to each of the compounds, propylene glycol monomethyl ether acetate (PGMEA) solutions, propylene glycol monomethyl ether (PGME) solutions and ethyl lactate (EL) solutions of various concentrations were prepared. The prepared solutions were stirred to evaluate the concentration at which the acid generator was completely dissolved.

Where [1] appears, read: Table 1, concentration at which completely dissolved.

Take `c1ccc([S+](c2cccc3ccccc23)c2cccc3ccccc23)cc1` [(1)]: where the note is “Table 8”, the “Solubility in EL (% by weight)” value turned out to be 5.0 % by weight, the “Solubility in PGME (% by weight)” value is 5.0 % by weight and the “Solubility in PGMEA (% by weight)” value is below 2.0 % by weight.
Regarding `c1ccc(-[s+]2c3ccccc3c3ccccc32)cc1` [(2)], under “Table 8”, the “Solubility in EL (% by weight)” value came to 20.0 % by weight, the “Solubility in PGME (% by weight)” value is 20.0 % by weight and the “Solubility in PGMEA (% by weight)” value was 10~15 % by weight.
Turning to `c1ccc(-[s+]2c3ccccc3c3ccccc32)cc1` [(b1-01), phenyldibenzothiophenium nonafluorobutane sulfonate], where the note is “Table 1”, the “Solubility in EL (% by weight)” value came to 20 % by weight and the “Solubility in PGMEA (% by weight)” value came out at 20 % by weight. Besides, the “Solubility in PGME (% by weight)” value under setting [1] was 10-15 % by weight.
For `c1ccc([S+](c2cccc3ccccc23)c2cccc3ccccc23)cc1` [(b′-01), di(1-naphthyl)phenylsulfonium nonafluorobutane sulfonate], where the note is “Table 1”, the “Solubility in EL (% by weight)” value worked out at 5 % by weight and the “Solubility in PGMEA (% by weight)” value worked out at 5 % by weight. The “Solubility in PGME (% by weight)” value under setting [1] is given as below 2 % by weight.
For the compound `Cc1cc(-[s+]2c3ccccc3c3ccccc32)cc(C)c1O` [Compound (b1-51)], where the note is “Table 1”, the “Solubility in EL (% by weight)” value is given as 10-15 % by weight and the “Solubility in PGMEA (% by weight)” value is reported as 10-15 % by weight. Moreover, the “Solubility in PGME (% by weight)” value under setting [1] is given as below 2 % by weight. Also, the “Solubility in PGME (% by weight)” value (Table 8) was 10~15 % by weight.
With `Cc1cc(-[s+]2c3ccccc3c3ccccc32)cc(C)c1OC(=O)OC(C)(C)C` [Compound (b1-81)], under “Table 1”, the “Solubility in EL (% by weight)” value came out at 20 % by weight and the “Solubility in PGMEA (% by weight)” value is reported as 20 % by weight. Moreover, under setting [1], the “Solubility in PGME (% by weight)” value was determined as 10 % by weight.
Turning to `Cc1cc(-[s+]2c3ccccc3c3ccccc32)cc(C)c1OCOC1CCCCC1` [b1-100], for the setting “Table 8”, the “Solubility in EL (% by weight)” value was above 30 % by weight, the “Solubility in PGME (% by weight)” value is listed as above 30 % by weight and the “Solubility in PGMEA (% by weight)” value is given as above 30 % by weight.
